Laboratory results reported in patent US4321274A, “Substituted 1-(cinnamylideneamino)-3-benzyli-deneaminoguanidines active against Giardia lamblia and Trichomonas vaginalis” (priority 1980, dated 1982).
Converted amounts (≈) assume the structure as drawn. Read-outs that look alike come from different tables or passages of the source.

Tests used:
[1] = system: T. vaginalis 30001; experiment: In vitro anti-T. vaginalis activity (50% inhibition of growth); assay type: cell-based, Trichomonas vaginalis; conditions: for IC50: Trichomonas vaginalis
Experimental: The activity of these compounds against Giardia lamblia and Trichomonas vaginalis are shown by the following test:
(§1) About 1.0-2.0 ml of a nutrient medium, for example, the modified Diamond's TPS medium at pH 7.05, together with about 10% by volume of heat-inactivated serum and about 1% by volume of antibiotic-antimycotic solution is placed in each well of a multiwell plate. To this mixture, an aliquot of a suspension of G. lamblia cells containing about […] is added. Subsequently, each well is inoculated with a known concentration of one of the active compounds, for example, 1-(3,4-dichlorocinnamylideneamino)-3-(4-cyanobenzylideneamino)guanidine. The multiwell plate containing the individual culture samples is incubated under anaerobic conditions at about 37° C. for about 16-24 hrs. The number of viable cells remaining in each well are then counted, such as with a hemacytometer. The percentage of survival is determined by comparison to controls inoculated with DMSO (dimethylsulfoxide) and the effective concentration (in parts per million) for 50% inhibition of growth (ED50) is determined. It is established that the lower the number of the value of ED50, the higher the activity of the active compound.
Employing essentially the same method of Example 1, centrifuged cells of T. vaginalis 30001 are inoculated with 1-(4-chlorocinnamylideneamino)-3-(3,4-dichlorobenzylideneamino)guanidine at 37° C. for 24 hours.
Similarly, previously described compounds (2) to (10) and the pharmaceutically acceptable salts thereof an active anti- T. vaginalis agents as shown in Table 1.

[2] = system: Giardia lamblia; experiment: In vitro anti-G. lamblia activity (50% inhibition of growth, viable cell count); assay type: cell-based; conditions: Giardia duodenalis, 37° C., anaerobic, about 16-24 hrs (Example 1: 24 hours), vs DMSO controls, read-out: Anti-G. lamblia ED50
Experimental: as §1
In each well of a multiwell plate is placed 1.4 ml of media mix containing Diamond's TPS medium (see Table 2) at pH 7.05, 10% by volume of heat-inactivated fetal bovine serum, and 1% by volume of an antibiotic-antimycotic solution (see Table 3). A suspension of Giardia lamblia is centrifuged at 2,500 xg. for 6 minutes. The cells are resuspended in a small volume of the Diamond's medium, counted, and each well inoculated with approximately 10^6 organisms. A stock solution of 1-(4-chlorocinnamylideneamino)-3-(3,4-dichlorobenzylideneamino)guanidine in dimethylsulfoxide is made at a concentration of 150 μg/ml. The wells are then inoculated with various concentrations of the drug. The plates are incubated for 24 hours at 37° C. in an anaerobic Gas Pak jar. After 24 hours of incubation each well is mixed and counted for viable organisms using a hemacytometer. The percentage of survival is determined by comparing the treated wells to controls treated with dimethylsulfoxide.
Employing substantially the similar procedure as described in Example 1 but substituting for 1-(4-chlorocinnamylideneamino)-3-(3,4-dichlorobenzylideneamino)guanidine used therein other active compounds, there are obtained similar results indicating the anti- G. lamblia activities of the compounds included above in Table 1.

[3] = cited from earlier work
[4] = system: Giardia lamblia; conditions: New York Times, June 10, 1980; cited from earlier work
[5] = system: animals; conditions: cited from earlier work
[6] = system: Trichomonas vaginalis; conditions: has been reported; cited from earlier work
[7] = in vitro, 37° C., 24 hours, Table 1, read-out: Anti-T. vaginalis ED50

Row | SMILES | IC50 [2] [µg/mL] | IC50 [1, 7] [µg/mL] | also measured
1 | N=C(NN=CC=Cc1ccc(Cl)cc1)NN=Cc1ccc(Cl)c(Cl)c1 [(1), 1-(4-chlorocinnamylideneamino)-3-(3,4-dichlorobenzylideneamino)guanidine] | 1.1 (≈ 2.79 µM) | – | IC50 ([1]; Example 2, 37° C. for 24 hours, unit inferred, read-out: ED50 value, anti-T. vaginalis): 2.25 µg/mL (≈ 5.7 µM); anti-T. vaginalis activity in words ([1]; in vitro, method of Example 1/2): effective anti- T. vaginalis agent
2 | CN(N=Cc1ccc(Cl)cc1)C(=N)NN=CC=Cc1ccc(C#N)cc1 [(3), 1-(4-cyanocinnamylideneamino)-3-(4-chlorobenzylideneamino)-3-methyl-guanidine] | 0.85 (≈ 2.33 µM) | 3.25 (≈ 8.91 µM) | –
3 | N#Cc1ccc(C=NNC(=N)NN=CC=Cc2ccc(Cl)c(Cl)c2)cc1 [(7), 1-(3,4-dichlorocinnamylideneamino)-3-(4-cyanobenzylideneamino)guanidine] | 0.57 (≈ 1.48 µM) | 1 (≈ 2.6 µM) | –
4 | CN(N=Cc1ccc(Cl)cc1)C(=N)NN=CC=Cc1ccc(Cl)cc1 [(8), 1-(4-chlorocinnamylideneamino)-3-(4-chlorobenzylideneamino)-3-methyl-guanidine] | 1.4 (≈ 3.74 µM) | 2.67 (≈ 7.13 µM) | –
5 | CCN(CC)CCCC(C)Nc1c2ccc(Cl)cc2nc2ccc(OC)cc12 (stereo not shown) [Atabrine] | – | – | adverse side effects ([3]; in vivo): known to cause adverse side effects; treatment of giardiasis [4]: successfully treated
6 | Cc1ncc([N+](=O)[O-])n1CCO [Flagyl (metronidazole), metronidazole] | 6.2 (≈ 36.2 µM) | < 1 | adverse side effects ([3]; in vivo): known to cause adverse side effects; carcinogenicity [5]: carcinogenic in animals; therapy of trichomoniasis [6]: Successful therapy; treatment of giardiasis [4]: successfully treated
7 | O=C1OCCN1/N=C/c1ccc([N+](=O)[O-])o1 [furazolidone] | – | – | adverse side effects ([3]; New York Times, June 10, 1980): known to cause adverse side effects; treatment of giardiasis [4]: successfully treated

Now from value to compound, other results behind:

Row | IC50 [2] [µg/mL] | IC50 [1, 7] [µg/mL] | SMILES | also measured
8 | 0.8 (≈ 1.96 µM) | 2.75 (≈ 6.74 µM) | CN(N=Cc1ccc(Cl)cc1)C(=N)NN=CC=Cc1ccc(C(F)(F)F)cc1 [(2), 1-(4-trifluoromethylcinnamylideneamino)-3-(4-chlorobenzylideneamino)-3-methylguanidine] | –
9 | 0.58 (≈ 1.42 µM) | 2.5 (≈ 6.12 µM) | CN(N=Cc1ccc(Cl)cc1)C(=N)NN=CC=Cc1ccc(Cl)c(Cl)c1 [(4), 1-(3,4-dichlorocinnamylideneamino)-3-(4-chlorobenzylideneamino)-3-methyl-guanidine] | –
10 | 1.5 (≈ 3.77 µM) | 3.25 (≈ 8.16 µM) | CN(N=Cc1ccc(C(F)(F)F)cc1)C(=N)NN=CC=Cc1ccc(C#N)cc1 [(5), 1-(4-cyanocinnamylideneamino)-3-(4-trifluoromethylbenzylideneamino)-3-methyl-guanidine] | –
11 | 0.73 (≈ 1.65 µM) | 2.67 (≈ 6.04 µM) | CN(N=Cc1ccc(C(F)(F)F)cc1)C(=N)NN=CC=Cc1ccc(Cl)c(Cl)c1 [(6), 1-(3,4-dichlorocinnamylideneamino)-3-(4-trifluoromethylbenzylideneamino)-3-methyl-guanidine] | –
12 | 1.3 (≈ 3.19 µM) | 2.38 (≈ 5.84 µM) | CN(N=Cc1ccc(C(F)(F)F)cc1)C(=N)NN=CC=Cc1ccc(Cl)cc1 [(9), 1-(4-chlorocinnamylideneamino)-3-(4-trifluoromethylbenzylideneamino)-3-methyl-guanidine] | –
13 | 1 (≈ 2.39 µM) | 3.25 (≈ 7.77 µM) | CN(N=Cc1ccc([N+](=O)[O-])cc1)C(=N)NN=CC=Cc1ccc(C(F)(F)F)cc1 [(10), 1-(4-trifluoromethylcinnamylideneamino)-3-(4-nitrobenzylideneamino)-3-methyl-guanidine] | –
